This passage reports Activity, fold change (FC) and EC50 results from ChEMBL document CHEMBL1155388 (Bioorg Med Chem Lett, 2010).

As usually defined, the EC50 is the midpoint of the concentration-response curve.

What all share (type): functional, cell-based
Assay [1] deals with T1, Muscarinic acetylcholine receptor M1 (Homo sapiens) (UniProt P11229).
T1 sequence (whole entry): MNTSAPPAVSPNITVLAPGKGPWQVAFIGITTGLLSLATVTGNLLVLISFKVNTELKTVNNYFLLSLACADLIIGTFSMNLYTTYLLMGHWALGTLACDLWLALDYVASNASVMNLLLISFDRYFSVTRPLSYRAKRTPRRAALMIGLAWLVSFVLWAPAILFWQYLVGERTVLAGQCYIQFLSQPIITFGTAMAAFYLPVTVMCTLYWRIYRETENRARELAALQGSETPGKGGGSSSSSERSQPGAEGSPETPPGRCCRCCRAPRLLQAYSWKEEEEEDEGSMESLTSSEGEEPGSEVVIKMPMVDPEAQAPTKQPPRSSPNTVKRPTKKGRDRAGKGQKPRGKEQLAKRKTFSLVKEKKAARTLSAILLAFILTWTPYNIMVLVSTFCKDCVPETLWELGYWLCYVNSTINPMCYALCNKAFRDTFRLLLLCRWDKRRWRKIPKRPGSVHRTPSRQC
The assay can be described thus: Potentiation of muscarinic M1 receptor expressed in CHO cells assessed as effect on acetylcholine-induced intracellular calcium mobilization after 1 hr by FLIPR assay relative to acetylcholine. More on the design: concentration or dose not given beside the values. (In general: Calcium flux is commonly read through the fluorescence of an indicator in the cells.)

Assay [2] has as its target T1, Muscarinic acetylcholine receptor M1 (Homo sapiens). The experiment in a line: Potentiation of muscarinic M1 receptor expressed in CHO cells assessed as effect on acetylcholine-induced intracellular calcium mobilization at 100 uM after 1 hr by FLIPR assay.
Assay [3] addresses T2, Muscarinic acetylcholine receptor M5 (Homo sapiens) (UniProt P08912).
T2 sequence (whole entry): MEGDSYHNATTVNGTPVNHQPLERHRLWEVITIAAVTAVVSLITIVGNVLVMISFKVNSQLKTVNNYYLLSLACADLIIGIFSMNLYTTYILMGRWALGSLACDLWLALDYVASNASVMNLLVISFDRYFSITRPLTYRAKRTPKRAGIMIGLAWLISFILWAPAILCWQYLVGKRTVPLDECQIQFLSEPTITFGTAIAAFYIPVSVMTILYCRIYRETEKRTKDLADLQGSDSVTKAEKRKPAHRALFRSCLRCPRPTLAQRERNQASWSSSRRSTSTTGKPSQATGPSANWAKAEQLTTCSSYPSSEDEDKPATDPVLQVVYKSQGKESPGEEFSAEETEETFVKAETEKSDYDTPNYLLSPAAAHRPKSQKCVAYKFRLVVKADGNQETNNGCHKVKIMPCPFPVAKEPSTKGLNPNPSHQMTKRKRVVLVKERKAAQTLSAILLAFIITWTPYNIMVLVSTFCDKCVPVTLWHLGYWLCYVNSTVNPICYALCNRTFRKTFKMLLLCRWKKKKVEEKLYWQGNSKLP
The assay can be described thus: Potentiation of muscarinic M5 receptor expressed in CHO cells assessed as effect on acetylcholine-induced intracellular calcium mobilization at 30 uM after 1 hr by FLIPR assay relative to acetylcholine.

Assay [4] deals with Muscarinic acetylcholine receptor M3 (Homo sapiens) (UniProt P20309). The experiment in a line: Potentiation of muscarinic M3 receptor expressed in CHO cells assessed as effect on acetylcholine-induced intracellular calcium mobilization at 30 uM after 1 hr by FLIPR assay relative to acetylcholine.
Sequence of Muscarinic acetylcholine receptor M3 (Homo sapiens) (P20309 whole entry, looked up): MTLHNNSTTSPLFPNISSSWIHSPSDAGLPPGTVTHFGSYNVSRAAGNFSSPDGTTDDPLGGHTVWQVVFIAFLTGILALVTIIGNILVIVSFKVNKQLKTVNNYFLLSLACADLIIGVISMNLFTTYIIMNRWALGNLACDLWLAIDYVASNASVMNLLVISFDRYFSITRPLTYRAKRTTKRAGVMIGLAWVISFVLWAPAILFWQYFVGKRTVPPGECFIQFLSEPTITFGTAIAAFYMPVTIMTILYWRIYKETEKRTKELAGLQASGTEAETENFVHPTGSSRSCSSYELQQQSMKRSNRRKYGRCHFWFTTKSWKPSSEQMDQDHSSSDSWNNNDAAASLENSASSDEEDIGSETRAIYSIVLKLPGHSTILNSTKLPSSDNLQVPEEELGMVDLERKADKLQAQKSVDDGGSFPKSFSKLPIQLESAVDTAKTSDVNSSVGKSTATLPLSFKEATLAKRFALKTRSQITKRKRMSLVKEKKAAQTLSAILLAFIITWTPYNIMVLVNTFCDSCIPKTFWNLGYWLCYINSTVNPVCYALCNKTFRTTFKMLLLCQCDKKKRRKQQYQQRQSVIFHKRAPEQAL
Assay [5] deals with T3, Muscarinic acetylcholine receptor M1 (Homo sapiens, UniProt P11229).
T3 sequence (P11229 whole entry): T1 sequence (whole entry)
The assay can be described thus: Potentiation of muscarinic M1 receptor expressed in CHO cells assessed as effect on acetylcholine-induced intracellular calcium mobilization after 1 hr by FLIPR assay.

Assay [6] concerns the target T1, Muscarinic acetylcholine receptor M1 (Homo sapiens). The assay can be described thus: Potentiation of muscarinic M1 receptor expressed in CHO cells assessed as effect on acetylcholine-induced intracellular calcium mobilization at 30 uM after 1 hr by FLIPR assay.
Assay [7] addresses T2, Muscarinic acetylcholine receptor M5 (Homo sapiens). The experiment in a line: Potentiation of muscarinic M5 receptor expressed in CHO cells assessed as effect on acetylcholine-induced intracellular calcium mobilization at 10 uM after 1 hr by FLIPR assay relative to acetylcholine.
Assay [8] addresses T1, Muscarinic acetylcholine receptor M1 (Homo sapiens). The assay can be described thus: Potentiation of muscarinic M1 receptor expressed in CHO cells assessed as effect on acetylcholine-induced intracellular calcium mobilization at 10 uM after 1 hr by FLIPR assay.
The target of assay [9] is T4, Muscarinic acetylcholine receptor M4 (Homo sapiens) (UniProt P08173).
T4 sequence (whole entry): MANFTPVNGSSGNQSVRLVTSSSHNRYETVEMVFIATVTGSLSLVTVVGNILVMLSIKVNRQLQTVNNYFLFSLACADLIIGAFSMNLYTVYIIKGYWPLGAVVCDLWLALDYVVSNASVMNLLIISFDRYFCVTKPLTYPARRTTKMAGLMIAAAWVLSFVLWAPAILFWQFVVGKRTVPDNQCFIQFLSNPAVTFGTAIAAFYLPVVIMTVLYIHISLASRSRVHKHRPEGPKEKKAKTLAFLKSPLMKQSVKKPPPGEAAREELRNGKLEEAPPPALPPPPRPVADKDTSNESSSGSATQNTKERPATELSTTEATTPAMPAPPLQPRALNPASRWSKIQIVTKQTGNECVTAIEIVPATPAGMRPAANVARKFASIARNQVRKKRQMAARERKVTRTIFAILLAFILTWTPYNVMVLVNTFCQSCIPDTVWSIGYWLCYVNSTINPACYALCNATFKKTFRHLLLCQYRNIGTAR
The experiment in a line: Potentiation of muscarinic M4 receptor expressed in CHO cells co-transfected with Gqi5 assessed as effect on acetylcholine-induced intracellular calcium mobilization up to 30 uM after 1 hr by FLIPR assay.

The target in assay [10] is Muscarinic acetylcholine receptor M3 (Homo sapiens) (UniProt P20309). The experiment in a line: Potentiation of muscarinic M3 receptor expressed in CHO cells assessed as effect on acetylcholine-induced intracellular calcium mobilization up to 30 uM after 1 hr by FLIPR assay.
The target of assay [11] is T2, Muscarinic acetylcholine receptor M5 (Homo sapiens). The experiment in a line: Potentiation of muscarinic M5 receptor expressed in CHO cells assessed as effect on acetylcholine-induced intracellular calcium mobilization up to 30 uM after 1 hr by FLIPR assay.
Assay [12] concerns the target T5, Muscarinic acetylcholine receptor M2 (Homo sapiens) (UniProt P08172).
T5 sequence (whole entry): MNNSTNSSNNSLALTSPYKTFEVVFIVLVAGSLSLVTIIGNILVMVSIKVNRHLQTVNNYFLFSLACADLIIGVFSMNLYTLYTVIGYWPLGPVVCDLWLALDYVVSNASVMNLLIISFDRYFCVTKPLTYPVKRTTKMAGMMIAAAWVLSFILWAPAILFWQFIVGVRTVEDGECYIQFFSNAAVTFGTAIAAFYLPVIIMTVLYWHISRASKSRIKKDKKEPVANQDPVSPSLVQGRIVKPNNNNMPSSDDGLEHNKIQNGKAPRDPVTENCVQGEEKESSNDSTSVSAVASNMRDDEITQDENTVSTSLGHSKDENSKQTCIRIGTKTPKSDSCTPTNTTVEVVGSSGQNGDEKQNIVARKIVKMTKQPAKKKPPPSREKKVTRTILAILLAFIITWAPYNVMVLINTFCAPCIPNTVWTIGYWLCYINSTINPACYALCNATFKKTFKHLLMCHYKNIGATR
The assay can be described thus: Potentiation of muscarinic M2 receptor expressed in CHO cells co-transfected with Gqi5 assessed as effect on acetylcholine-induced intracellular calcium mobilization up to 30 uM after 1 hr by FLIPR assay.

Active and inactive are the calls of the source. The rule behind the calls is not given here.

`COc1ccc(Cn2cc(C(=O)O)c(=O)c3ccccc32)cc1`: the Activity in [1] came out at 100%. In assay [2], the fold change (FC) was 100.

Consider `Cn1cc(-c2ccc(CN3C(=O)C(=O)c4ccccc43)cc2)cn1`, for which the Activity in assay [3] was determined as 35%; in [4], 25%; in [1], 80%. Also, the fold change (FC) in assay [3] amounted to 14; in assay [6], 14; in assay [7] it was 5; in [8], 5. In [5], the 50% effective concentration (EC50) is 2300 nM.

`Cn1cc(-c2ccc(CN3C(=O)C(=O)c4cccc(F)c43)c(F)c2)cn1`: the half-maximal effective concentration (EC50) in assay [5] was 2300 nM. Also, in [1], the Activity is 55%.

For the compound `Cn1cc(-c2ccc(CN3C(=O)C(=O)c4ccccc43)c(F)c2)cn1`, the outcome in assay [9], in assay [10], in assay [11] and in assay [12] was inactive. The EC50 in [5] was determined as 830 nM. The fold change (FC) in assay [6] and in assay [11] was 3 in each case. The Activity in assay [1] was determined as 65%.

`Cn1cc(-c2cc(F)c(CN3C(=O)C(=O)c4ccccc43)c(F)c2)cn1`: in [5], the EC50 was 860 nM. Besides, the fold change (FC) in assay [6] and in [11] was 2 throughout. Further, in [1], the Activity is 60%.

With `Cn1cc(-c2ccc(CN3C(=O)C(=O)c4c(F)ccc(F)c43)c(F)c2)cn1`, the half-maximal effective concentration (EC50) in assay [5] is 1200 nM. Moreover, the Activity in [1] worked out at 50%.

Consider `Cn1cc(-c2cc(F)c(CN3C(=O)C(=O)c4cccc(F)c43)c(F)c2)cn1`, for which the half-maximal effective concentration (EC50) in assay [5] stood at 1100 nM. For the same compound, the Activity in assay [1] was found to be 40%.
